From the supplement of paper PMC7394473

Assays:
Conditions in all cases: 72 h
U2OS [1] = assay: GR50 (concentration giving GR = 0.5)
Description: (§1)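 U2OS cells treated with full dose titrations of drug; live and dead cells counted by STACK microscopy (mKate2 nuclei, SYTOX Green) at 72 h, biological triplicates. GR and FV dose responses were fitted with 4-parameter logistic models (GR lower bound -1). GRADE (0-100) is the rescaled angle of a linear fit of FV versus GR at doses with GR >= 0, giving the percentage of the response due to cell death.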

U2OS [2] = assay: FV IC50 (concentration giving fractional viability 0.5); higher = less potent killing
Description: as §1

U2OS [3] = assay: normalized growth rate inhibition value (GR) relative to untreated cells (GR value (dimensionless, 1 = untreated growth)); higher = less growth inhibition
Description: (§2)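 U2OS::Nuc-mKate2 cells seeded in 96-well plates and treated with eight- to ten-point half-log or log dilutions of drug in the presence of 50 nM SYTOX Green. Live (mKate2+) and dead (SYTOX+) cells were counted by IncuCyte STACK live-cell microscopy at 72 h; biological triplicates. GR is the normalised growth-rate inhibition value (Hafner 2016; 1 = untreated growth, <0 = population shrinking). FV is live/(live+dead) cells, not normalised.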

U2OS [4] = assay: drug GRADE (percent of response due to cell death) (% (0-100)); higher = more death-driven response
Description: as §1

U2OS [5] = assay: fractional viability (live cells / total cells); higher = less cell death
Description: as §2

U2OS [6] = assay: GRmin (fitted minimal GR value at highest effect) (GR value (dimensionless)); higher = less efficacious
Description: as §1

Structure (SMILES) | GR50 (U2OS [1]) [µM] | FV IC50 (U2OS [2]) [µM] | normalized growth rate inhibition value (U2OS [3]; 0.01 µM) | normalized growth rate inhibition value (U2OS [3]; 0.0316 µM) | normalized growth rate inhibition value (U2OS [3]; 0.1 µM) | normalized growth rate inhibition value (U2OS [3]; 0.316 µM) | normalized growth rate inhibition value (U2OS [3]; 1 µM) | normalized growth rate inhibition value (U2OS [3]; 3.16 µM) | normalized growth rate inhibition value (U2OS [3]; 10 µM) | normalized growth rate inhibition value (U2OS [3]; 31.6 µM) | drug GRADE (U2OS [4]) | fractional viability (U2OS [5]; 0.01 µM) | fractional viability (U2OS [5]; 0.0316 µM) | fractional viability (U2OS [5]; 0.1 µM) | fractional viability (U2OS [5]; 0.316 µM) | fractional viability (U2OS [5]; 1 µM) | fractional viability (U2OS [5]; 3.16 µM) | fractional viability (U2OS [5]; 10 µM) | fractional viability (U2OS [5]; 31.6 µM) | normalized growth rate inhibition value (U2OS [3]; 0.00316 µM) | fractional viability (U2OS [5]; 0.00316 µM) | GRmin (U2OS [6]) | normalized growth rate inhibition value (U2OS [3]; 0.00100578 µM) | normalized growth rate inhibition value (U2OS [3]; 0.00317827 µM) | normalized growth rate inhibition value (U2OS [3]; 0.0100433 µM) | normalized growth rate inhibition value (U2OS [3]; 0.0317369 µM) | normalized growth rate inhibition value (U2OS [3]; 0.100289 µM) | normalized growth rate inhibition value (U2OS [3]; 0.316912 µM) | normalized growth rate inhibition value (U2OS [3]; 1.00144 µM) | normalized growth rate inhibition value (U2OS [3]; 3.16456 µM) | fractional viability (U2OS [5]; 0.00100578 µM) | fractional viability (U2OS [5]; 0.00317827 µM) | fractional viability (U2OS [5]; 0.0100433 µM) | fractional viability (U2OS [5]; 0.0317369 µM) | fractional viability (U2OS [5]; 0.100289 µM) | fractional viability (U2OS [5]; 0.316912 µM) | fractional viability (U2OS [5]; 1.00144 µM) | fractional viability (U2OS [5]; 3.16456 µM)
CNc1ccc2oc(C[C@H]3O[C@@]4(CC[C@H]3C)O[C@H]([C@H](C)C(=O)c3ccc[nH]3)[C@H](C)C[C@H]4C)nc2c1C(=O)O | 1.69 | 8.33 | 1.02 | 1.01 | 0.913 | 0.846 | 0.612 | 0.31 | -0.171 | -0.602 | 23.9 | 0.982 | 0.983 | 0.976 | 0.97 | 0.959 | 0.848 | 0.418 | 0.0921 | – | – | – | – | – | – | – | – | – | – | – | – | – | – | – | – | – | – | –
Cc1ccc(C(=O)N(CCCN)[C@@H](c2oc3cc(Cl)ccc3c(=O)c2Cc2ccccc2)C(C)C)cc1 | – | 2.85 | -0.165 | 0.0886 | -0.222 | 0.0837 | -0.166 | -0.182 | -0.945 | -0.883 | 53.2 | 0.758 | 0.808 | 0.764 | 0.827 | 0.782 | 0.436 | 0.0037 | 0.000513 | 0.205 | 0.855 | -0.9 | – | – | – | – | – | – | – | – | – | – | – | – | – | – | – | –
CN(C)CC[C@H](CSc1ccccc1)Nc1ccc(S(=O)(=O)NC(=O)c2ccc(N3CCN(Cc4ccccc4-c4ccc(Cl)cc4)CC3)cc2)cc1[N+](=O)[O-] [ABT-737] | 2.13 | 6.86 | – | – | – | – | – | – | -0.162 | – | 65.6 | – | – | – | – | – | – | 0.407 | – | – | – | – | 0.92 | 1.02 | 1.02 | 0.95 | 0.94 | 0.817 | 0.744 | 0.358 | 0.986 | 0.984 | 0.983 | 0.982 | 0.954 | 0.913 | 0.82 | 0.684
NC(=O)Nc1cc(-c2cccc(F)c2)sc1C(=O)N[C@H]1CCCNC1 [AZD7762] | 0.11 | 0.51 | – | – | – | – | – | – | -0.718 | – | 20 | – | – | – | – | – | – | 0.0629 | – | – | – | -0.614 | 1.04 | 1.04 | 1.19 | 1.12 | 0.423 | -0.126 | -0.318 | -0.622 | 0.991 | 0.992 | 0.992 | 0.988 | 0.894 | 0.548 | 0.398 | 0.0972
CCN1CCN(Cc2ccc(Nc3ncc(F)c(-c4cc(F)c5nc(C)n(C(C)C)c5c4)n3)nc2)CC1 [Abemaciclib] | 0.299 | 3.61 | – | – | – | – | – | – | -0.928 | – | 17.3 | – | – | – | – | – | – | 0.0044 | – | – | – | – | 1.03 | 0.796 | 0.854 | 0.834 | 0.613 | 0.583 | -0.0282 | -0.2 | 0.99 | 0.992 | 0.993 | 0.992 | 0.986 | 0.986 | 0.82 | 0.615
CC[C@@H]1C(=O)N(C)c2cnc(Nc3ccc(C(=O)NC4CCN(C)CC4)cc3OC)nc2N1C1CCCC1 [BI2536] | – | 0.0275 | -0.371 | -0.116 | -0.354 | -0.184 | -0.415 | -0.378 | -0.876 | -0.822 | 20.9 | 0.45 | 0.485 | 0.413 | 0.388 | 0.323 | 0.168 | 0.0141 | 0.00423 | 0.0188 | 0.517 | – | – | – | – | – | – | – | – | – | – | – | – | – | – | – | – | –
O=C(NCCCNc1nc(Nc2cccc(NC(=O)N3CCCC3)c2)ncc1I)c1cccs1 [BX795] | 1.46 | 11.6 | 0.987 | 1.11 | 0.954 | 1.01 | 0.723 | -0.0493 | -0.146 | -0.574 | 34.3 | 0.982 | 0.975 | 0.974 | 0.971 | 0.94 | 0.716 | 0.661 | 0.102 | – | – | -0.438 | – | – | – | – | – | – | – | – | – | – | – | – | – | – | – | –
O=C(/C=C/c1cccc(S(=O)(=O)Nc2ccccc2)c1)NO [Belinostat] | 0.332 | 0.93 | 0.939 | 0.975 | 0.836 | 0.498 | -0.0168 | -0.527 | -0.646 | -0.72 | 63.3 | 0.969 | 0.972 | 0.947 | 0.878 | 0.466 | 0.096 | 0.0497 | 0.0293 | – | – | -0.733 | – | – | – | – | – | – | – | – | – | – | – | – | – | – | – | –
